SMILES strings stand for the structures.

The IC50 is the point on the concentration scale where inhibition reaches its midpoint.

The test has as its system K562. The test can be described thus: Cytotoxicity against Homo sapiens (human) K562 cells after 24 hr by MTT assay. It counts as functional, cell-based. Conditions: K562, 24 h. On the technique in general: Formazan colour is commonly taken as a measure of viable cells.

As for `C[C@H](NC(=O)c1ccccc1)c1n[nH]c(=S)n1N`, the IC50 stood at 372 µM.

`CC(C)[C@H](NC(=O)c1ccc([N+](=O)[O-])cc1)c1n[nH]c(=S)o1` came in with an IC50 of 43.6 µM.

`CC(C)[C@H](NC(=O)c1ccccc1)c1n[nH]c(=S)n1N` gave an IC50 of 154 µM. Against the preceding molecule, the IC50 is about 3.5-fold higher.

In turn, `CC(C)[C@H](NC(=O)c1ccccc1)c1n[nH]c(=S)o1` yielded an IC50 of 245 µM.

With `COc1ccc(/C=C/C(=O)N[C@H](C)c2n[nH]c(=S)o2)cc1`, the IC50 was 330 µM.

As to `C[C@H](NC(=O)c1ccccc1)c1n[nH]c(=S)o1`, the IC50 is 377 µM.

Molecule `C[C@H](NC(=O)Cc1ccccc1)c1n[nH]c(=S)o1` returned an IC50 of 1020 µM. This IC50 is about 2.7-fold higher than that of the molecule before.

`O=C(/C=C/c1ccccc1)N[C@H](CO)c1n[nH]c(=S)o1` had a half-inhibitory concentration (IC50) of 435 µM.

`C[C@H](NC(=O)c1ccc(Cl)cc1)c1n[nH]c(=S)o1` returned an IC50 of 31.1 µM.

In turn, `NC(=O)NO` [HYDROXYUREA] displayed a 50% inhibitory concentration (IC50) of 688 µM.

For the molecule `C[C@H](NC(=O)c1ccc(Cl)cc1)c1n[nH]c(=S)n1N`, it took 98.6 µM to reach half-maximal inhibition (IC50).

`C[C@H](NC(=O)c1cccnc1)c1n[nH]c(=S)o1` showed an IC50 of 739 µM.

Source of the values: ChEMBL document CHEMBL3046440, “Synthesis and antitumor evaluation of some 1,3,4-oxadiazole-2(3H)-thione and 1,2,4-triazole-5(1H)-thione derivatives” (Med Chem Res, 2012).
